Tested on: 616215-338-R-J1-PDC tumor spheroids, viability
Assay: Anticancer human tumor 616215-338-R-J1-PDC patient-derived colon adenocarcinoma cell line growth inhibition [GQUAD]
Conditions: spheroids with HUVEC and MSC; for IC50: curve of first compound; for viability, T/C: stronger effect = lower value
In short: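 Multi-cell-type spheroids of tumor cells with HUVEC and mesenchymal stem cells, treated with drug combinations. Concentrations descend in half-log steps from near clinical Cmax, or from 10 microM where Cmax is unknown; viability read-out.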

[1] = second compound 0.0316 µM, first compound 0.0316 µM
[2] = second compound 0.0316 µM, first compound 0.316 µM
[3] = second compound 0.1 µM, first compound 0.0316 µM
[4] = second compound 0.1 µM, first compound 0.316 µM
[5] = second compound 0.316 µM, first compound 0.0316 µM
[6] = second compound 0.316 µM, first compound 0.316 µM
[7] = second compound 1 µM, first compound 0.0316 µM
[8] = second compound 1 µM, first compound 0.316 µM
[9] = second compound 3.16 µM, first compound 0.0316 µM
[10] = second compound 3.16 µM, first compound 0.316 µM
[11] = second compound 10 µM, first compound 0.0316 µM
[12] = second compound 10 µM, first compound 0.316 µM
[13] = second compound 0.0316 µM, first compound 0.1 µM
[14] = second compound 0.0316 µM, first compound 1 µM
[15] = second compound 0.0316 µM, first compound 3.16 µM
[16] = second compound 0.0316 µM, first compound 10 µM
[17] = second compound 0.1 µM, first compound 0.1 µM
[18] = second compound 0.1 µM, first compound 1 µM
[19] = second compound 0.1 µM, first compound 3.16 µM
[20] = second compound 0.1 µM, first compound 10 µM
[21] = second compound 0.316 µM, first compound 0.1 µM
[22] = second compound 0.316 µM, first compound 1 µM
[23] = second compound 0.316 µM, first compound 3.16 µM
[24] = second compound 0.316 µM, first compound 10 µM
[25] = second compound 1 µM, first compound 0.1 µM
[26] = second compound 1 µM, first compound 1 µM
[27] = second compound 1 µM, first compound 3.16 µM
[28] = second compound 1 µM, first compound 10 µM
[29] = second compound 3.16 µM, first compound 0.1 µM
[30] = second compound 3.16 µM, first compound 1 µM
[31] = second compound 3.16 µM, first compound 3.16 µM
[32] = second compound 3.16 µM, first compound 10 µM
[33] = second compound 10 µM, first compound 0.1 µM
[34] = second compound 10 µM, first compound 1 µM
[35] = second compound 10 µM, first compound 3.16 µM
[36] = second compound 10 µM, first compound 10 µM
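Also: spheroids exposed to agents for 7 days before readout.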
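For viability, T/C in this document: percent viability relative to DMSO vehicle control wells taken as 100%.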

CC[C@@]1(O)C(=O)OCc2c1cc1n(c2=O)Cc2cc3c(CN(C)C)c(O)ccc3nc2-1 + Cc1[nH]c2ccc(F)cc2c1-c1nc2c3cccnc3c3ncccc3c2[nH]1
IC50 (second compound 0.0316 µM): 302 nM
IC50 (second compound 0.1 µM): > 316 nM
IC50 (second compound 0.316 µM): 232 nM
IC50 (second compound 1 µM): > 316 nM
IC50 (second compound 3.16 µM): 262 nM
IC50 (second compound 10 µM): 186 nM
viability, T/C (second compound 0.0316 µM, first compound 0.000999 µM): 102%
viability, T/C (second compound 0.0316 µM, first compound 0.00316 µM): 99.7%
viability, T/C (second compound 0.0316 µM, first compound 0.00999 µM): 103%
viability, T/C [1]: 99.4%
viability, T/C (second compound 0.0316 µM, first compound 0.0999 µM): 90.5%
viability, T/C [2]: 48.2%
viability, T/C (second compound 0.1 µM, first compound 0.000999 µM): 105%
viability, T/C (second compound 0.1 µM, first compound 0.00316 µM): 111%
viability, T/C (second compound 0.1 µM, first compound 0.00999 µM): 97%
viability, T/C [3]: 101%
viability, T/C (second compound 0.1 µM, first compound 0.0999 µM): 89.5%
viability, T/C [4]: 55.2%
viability, T/C (second compound 0.316 µM, first compound 0.000999 µM): 88.9%
viability, T/C (second compound 0.316 µM, first compound 0.00316 µM): 109%
viability, T/C (second compound 0.316 µM, first compound 0.00999 µM): 100%
viability, T/C [5]: 101%
viability, T/C (second compound 0.316 µM, first compound 0.0999 µM): 79.8%
viability, T/C [6]: 38.9%
viability, T/C (second compound 1 µM, first compound 0.000999 µM): 93%
viability, T/C (second compound 1 µM, first compound 0.00316 µM): 108%
viability, T/C (second compound 1 µM, first compound 0.00999 µM): 95.3%
viability, T/C [7]: 97.7%
viability, T/C (second compound 1 µM, first compound 0.0999 µM): 90.9%
viability, T/C [8]: 51.1%
viability, T/C (second compound 3.16 µM, first compound 0.000999 µM): 88.8%
viability, T/C (second compound 3.16 µM, first compound 0.00316 µM): 89.9%
viability, T/C (second compound 3.16 µM, first compound 0.00999 µM): 92%
viability, T/C [9]: 95.5%
viability, T/C (second compound 3.16 µM, first compound 0.0999 µM): 87%
viability, T/C [10]: 42.6%
viability, T/C (second compound 10 µM, first compound 0.000999 µM): 98.2%
viability, T/C (second compound 10 µM, first compound 0.00316 µM): 110%
viability, T/C (second compound 10 µM, first compound 0.00999 µM): 87.8%
viability, T/C [11]: 94.5%
viability, T/C (second compound 10 µM, first compound 0.0999 µM): 71.4%
viability, T/C [12]: 31.4%

CC1COCCN1c1cc(C2(S(C)(=N)=O)CC2)nc(-c2ccnc3[nH]ccc23)n1 (stereo unspecified) + Cc1cnc(CNC(=O)c2c(=O)c3ccc(N4CCCN(C)CC4)nc3n3c2sc2ccccc23)cn1
IC50 (second compound 0.0316 µM): 2380 nM
IC50 (second compound 0.1 µM): 1070 nM
IC50 (second compound 0.316 µM): 45.3 nM
IC50 (second compound 1 µM): < 31.6 nM
IC50 (second compound 3.16 µM): < 31.6 nM
IC50 (second compound 10 µM): < 31.6 nM
viability, T/C [1]: 97.6%
viability, T/C [13]: 97.4%
viability, T/C [2]: 94.5%
viability, T/C [14]: 83.7%
viability, T/C [15]: 38.8%
viability, T/C [16]: 31.4%
viability, T/C [3]: 72.5%
viability, T/C [17]: 73.4%
viability, T/C [4]: 70%
viability, T/C [18]: 51.2%
viability, T/C [19]: 33.6%
viability, T/C [20]: 32.6%
viability, T/C [5]: 53.5%
viability, T/C [21]: 43.2%
viability, T/C [6]: 44.1%
viability, T/C [22]: 42.1%
viability, T/C [23]: 33.7%
viability, T/C [24]: 28.2%
viability, T/C [7]: 38.3%
viability, T/C [25]: 40.9%
viability, T/C [8]: 32%
viability, T/C [26]: 26.7%
viability, T/C [27]: 27.7%
viability, T/C [28]: 21.5%
viability, T/C [9]: 21.9%
viability, T/C [29]: 30.2%
viability, T/C [10]: 31.6%
viability, T/C [30]: 30.2%
viability, T/C [31]: 40.4%
viability, T/C [32]: 30%
viability, T/C [11]: 25.1%
viability, T/C [33]: 27.1%
viability, T/C [12]: 29.9%
viability, T/C [34]: 22.4%
viability, T/C [35]: 19.6%
viability, T/C [36]: 17.5%

COc1cccc2c1C(=O)c1c(O)c3c(c(O)c1C2=O)CC(O)(C(=O)CO)CC3OC1CC(N)C(O)C(C)O1 (stereo unspecified) + Cc1cnc(CNC(=O)c2c(=O)c3ccc(N4CCCN(C)CC4)nc3n3c2sc2ccccc23)cn1
IC50 (second compound 0.0316 µM): 381 nM
IC50 (second compound 0.1 µM): 410 nM
IC50 (second compound 0.316 µM): < 31.6 nM
IC50 (second compound 1 µM): < 31.6 nM
IC50 (second compound 3.16 µM): < 31.6 nM
IC50 (second compound 10 µM): < 31.6 nM
viability, T/C [1]: 102%
viability, T/C [13]: 54.7%
viability, T/C [2]: 50.2%
viability, T/C [14]: 40.5%
viability, T/C [15]: 20.2%
viability, T/C [16]: 1.32%
viability, T/C [3]: 56%
viability, T/C [17]: 67.4%
viability, T/C [4]: 49.7%
viability, T/C [18]: 39.2%
viability, T/C [19]: 19.4%
viability, T/C [20]: 1.25%
viability, T/C [5]: 38.2%
viability, T/C [21]: 39%
viability, T/C [6]: 32%
viability, T/C [22]: 27.7%
viability, T/C [23]: 19.9%
viability, T/C [24]: 0.1%
viability, T/C [7]: 28.1%
viability, T/C [25]: 37.7%
viability, T/C [8]: 34.5%
viability, T/C [26]: 26%
viability, T/C [27]: 12.6%
viability, T/C [28]: 0.1%
viability, T/C [9]: 29.8%
viability, T/C [29]: 28.1%
viability, T/C [10]: 35.1%
viability, T/C [30]: 16.4%
viability, T/C [31]: 15.3%
viability, T/C [32]: 0.16%
viability, T/C [11]: 28%
viability, T/C [33]: 20.8%
viability, T/C [12]: 28.3%
viability, T/C [34]: 23.1%
viability, T/C [35]: 3.24%
viability, T/C [36]: 0.25%
